Data set [1] is described as follows: acute oral toxicity in mice. To be noted: mouse, in vivo, single oral dose. As to the method: (§1) An aqueous solution of [2-(4-amino-2,6-dibromophenoxy)ethyl]dimethyl (2-methylallyl)ammonium chloride is administered orally to several groups of male and female Sprague-Dawley derived rats and male and female Swiss mice (Cox strain). The compound is administered as single oral dosages in varying amounts, and the animals are held to assess toxicity twenty-four hours after administration of the compound.

Data set [2] is described as follows: acute oral toxicity in rats. To be noted: rat, in vivo, single oral dose. Here is the method:
as §1

Usually LD50 stands for the dose at which mortality reaches 50%. Read a low LD50 as greater toxicity. For `C=C(C)C[N+](C)(C)CCOc1c(Br)cc(N)cc1Br.[Cl-]` [Example 1, [2-(4-amino-2,6-dibromophenoxy)ethyl]-dimethyl(2-methylallyl)ammonium chloride], the LD50 at 24 h in data set [1] (female mice) turned out to be 550 mg/kg; in data set [1] (male mice), 560 mg/kg; in data set [2] (female rats) it was 725 mg/kg; in data set [2] (male rats) it was 758 mg/kg.

(Values after patent publication US3932664A, “Substituted phenoxyalkyl quaternary ammonium compounds as antiarrhythemic agents” (priority 1974, dated 1976).)
